# Columns and labels:
# [1] = Phase II AMX3500 (CENTAUR) sparse sampling: steady-state plasma concentrations of TURSO/TUDCA, UDCA, GUDCA in ALS patients; format: in vivo, human; conditions: patients; comparison across studies
# Experimental: • 1. […] Treatment is administered as one sachet daily for the initial 3 weeks and then increased if tolerated to one sachet twice daily. […] Sampling times are randomly assigned to occur at either 1 or 4 hours post-dose at the 12 week visit and the other time at the 24 week visit. • Treatment duration: 24 weeks • 2.
# • Protocol AMX3500: sparse sampling in 87 subjects with ALS. Approximately 2 samples are collected for each subject, 1 or 4 hours post dose following 12 and 24 weeks of treatment. • Protocol A35-002: rich sampling in 14 healthy adults. Approximately 21 samples are collected over 24 hours for each subject on two occasions, once following a high fat meal and the other under fasting conditions.
# Subjects were advised to take the drug before a meal. […] Referred to as protocol 3500.
# A study was carried out to examine plasma concentration data in various subgroups for the protocol AMX3500 Phase 2 study. This example summarizes plasma concentrations of TUDCA and 2 metabolites, also related acids, UDCA, the de-conjugated TUDCA metabolite, and GUDCA, the glycine conjugate of UDCA.
# For each of the 2 treatment arms (treatment and placebo), subjects were further divided into 2 sample sequence groups for schedule of pharmacokinetic measurements: • 1. 1 hour post-dose for the Week 12 visit and 4 hours post-dose for the Week 24 visit • 2. 4 hours post-dose for the Week 12 visit and 1 hour post-dose for the Week 24 visit
# Twenty-four distinct medication descriptions were identified as containing antibiotics. Dates of antibiotic use were compared to dates of visits and if the antibiotic use date range contained the visit date, then that visit was flagged for that subject's data for antibiotic use. […] These antibiotics could hypothetically be in a subject's body still if this event occurred. However, it was observed that only a small number of subjects took antibiotics near to visit dates but not overlapping visit dates. In other cases, subjects were taking antibiotics on the date of one visit but not the others. Some subjects are therefore in both categories of antibiotic use and nonuse, though no individual visits for a subject are counted in both categories at the same time.
# Subjects whose race were recorded as “Black” or “African American” were evaluated according to the standard Glomerular Filtration Rate (eGFR) rating for that race. The other standard eGFR rating used, sometimes referred to as a standard for people who are White, was applied to subjects of all other races. These rates were analyzed as continuous in mL/min/1.73 m2 units and as the following categories: • 1. Less than 90 mL/min/1.73 m^2 • 2. Equal to or greater than 90 mL/min/1.73 m^2
# Age was converted from a continuous variable to 2 categories: • 1. As old or older than 65 years old • 2. Younger than 65 years old
# All boxplots boxes are bounded at the 25th and 75th percentile, with whiskers at 10th and 90th percentiles, outliers beyond that as points, the black line as median, and red line as mean.
# [2] = Population pharmacokinetic model and simulations of PB and PAA (healthy subjects and ALS patients); design: species or system human; conditions: for Cmax, Mean: from individual Bayesian (post hoc) parameter estimates; for Cmax, 2.5th percentile / Cmax, 97.5th percentile / Cmax, Geometric mean / Cmax, Median: post hoc Bayesian estimates; for V, volume of distribution of PAA: population PK
# Text: The order of administration with and without food was randomly assigned. […] Subjects were advised to take the drug before a meal. […] No inter-occasion variability (IOV) was included.
smiles,measurement,setting,value
"O=C(O)Cc1ccccc1 [PAA, phenylacetate]",accumulation in plasma after once- or twice-daily dosing,[1],no accumulation
same,"Cmax, Mean","[2]; ALS patients, Fasting",24100 ng/mL
same,"Cmax, 2.5th percentile","[2]; ALS patients, Fasting",10100 ng/mL
same,"Cmax, 97.5th percentile","[2]; ALS patients, Fasting",44200 ng/mL
same,"Cmax, Geometric mean","[2]; ALS patients, Fasting",22300 ng/mL
same,"Cmax, Median","[2]; ALS patients, Fasting",23800 ng/mL
same,"Cmax, Mean","[2]; ALS patients, Fed",16600 ng/mL
same,"Cmax, 2.5th percentile","[2]; ALS patients, Fed",8160 ng/mL
same,"Cmax, 97.5th percentile","[2]; ALS patients, Fed",25300 ng/mL
same,"Cmax, Geometric mean","[2]; ALS patients, Fed",15600 ng/mL
same,"Cmax, Median","[2]; ALS patients, Fed",16900 ng/mL
same,estimated steady-state mean Cmax,"[2]; ALS patients, based on population PK",24100 ng/mL
same,"V, volume of distribution of PAA",[2]; Bootstrap Median,56.1 L
same,"V, volume of distribution of PAA",[2]; Final Model mean estimate,56.3 L

# — patent US20230372263A1, “METHODS AND COMPOSITIONS FOR TREATING AMYOTROPHIC LATERAL SCLEROSIS” (Amylyx Pharmaceuticals, Inc., priority 2022, published 2023)
